One may read the Ki as the equilibrium dissociation constant of an inhibitor or competing ligand from its target.

The values below come from patent US9273033B2, “Substituted pyridone derivatives as PDE10 inhibitors” (Merck Sharp & Dohme Corp., priority 2012, dated 2016).

The target of the test is human PDE10A2 (Homo sapiens (Human), UniProt Q9Y233). Briefly: PDE10 fluorescence polarization (IMAP FP) inhibition assay. The class given is biochemical. The following applies: human PDE10A2, FAM-labeled cAMP substrate, read-out: PDE10A Ki. The method, then: The activity of the compounds in accordance with the present invention as PDE10 inhibitors may be readily determined without undue experimentation using a fluorescence polarization (FP) methodology that is well known in the art (Huang, W., et al., J. Biomol Screen, 2002, 7: 215).
In a typical experiment the PDE10 inhibitory activity of the compounds of the present invention was determined in accordance with the following experimental method. PDE10A2 was amplified from human fetal brain cDNA (Clontech, Mountain View, Calif.) using a forward primer corresponding to nucleotides 56-77 of human PDE10A2 (Accession No. AF127480, Genbank Identifier 4894716), containing a Kozak consensus sequence, and a reverse primer corresponding to nucleotides 2406-2413 of human PDE10A2 (Accession No. AF127480, Genbank Identifier 4894716). Amplification with Easy-A polymerase (Stratagene, La Jolla, Calif.) was 95° C. for 2 minutes followed by thirty three cycles of 95° C. for 40 seconds, 55° C. for 30 seconds, and 72° C. for 2 minutes 48 seconds. Final extension was 72° C. for 7 minutes. The PCR product was TA cloned into pcDNA3.2-TOPO (Invitrogen, Carlsbad, Calif.) according to standard protocol. AD293 cells with 70-80% confluency were transiently transfected with human PDE10A2/pcDNA3.2-TOPO using Lipofectamine 2000 according to manufacturer specifications (Invitrogen, Carlsbad, Calif.). Cells were harvested 48 hours post-transfection and lysed by sonication (setting 3, 10×5 sec pulses) in a buffer containing 20 mM HEPES, 1 mM EDTA and protease inhibitor cocktail (Roche). Lysate was collected by centrifugation at 75,000×g for 20 minutes. Supernatant containing the cytoplasmic fraction was used for evaluation of PDE10A2 activity. The fluorescence polarization assay for cyclic nucleotide phosphodiesterases was performed using an IMAP® FP kit supplied by Molecular Devices, Sunnyvale, Calif. (product # R8139). IMAPU technology has been applied previously to phosphodiesterase assays (Huang, W., et al., J. Biomol Screen, 2002, 7: 215). Assays were performed at room temperature in 384-well microtiter plates with an incubation volume of 20.2 μL. Solutions of test compounds were prepared in DMSO and serially diluted with DMSO to yield 8 μL of each of 10 solutions differing by 3-fold in concentration, at 32 serial dilutions per plate. 100% inhibition is determined using a known PDE10 inhibitor, which can be any compound that is present at 5,000 times its Ki value in the assay described as follows, such as papaverine (see Siuciak, et al. Neuropharmacology (2006) 51:386-396; Becker, et al. Behav Brain Res (2008) 186(2):155-60; Threlfell, et al., J Pharmacol Exp Ther (2009) 328(3):785-795), 2-{4-[pyridin-4-yl-1-(2,2,2-trifluoroethyl)-1H-pyrazol-3-yl]phenoxymethyl}quinoline succinic acid or 2-[4-(1-methyl-4-pyridin-4-yl-1H-pyrazol-3-yl)-phenoxymethyl]quinoline succinic acid (see Schmidt, et al. J Pharmacol Exp Ther (2008) 325:681-690; Threlfell, et al., J Pharmacol Exp Ther (2009) 328(3): 785-795). 0% of inhibition is determined by using DMSO (1% final concentrations).
A Labcyte Echo 555 (Labcyte, Sunnyvale, Calif.) is used to dispense 200 nL from each well of the titration plate to the 384 well assay plate. A solution of enzyme (1/1600 dilution from aliquots; sufficient to produce 20% substrate conversion) and a separate solution of FAM-labeled cAMP PDE from Molecular Devices (product # R7506), at a final concentration of 50 nM are made in the assay buffer (10 mM Tris HCl, pH 7.2, 10 mM MgCl2, 0.05% NaN3 0.01% Tween-20, and 1 mM DTT). The enzyme and the substrate are then added to the assay plates in two consecutive additions of 10 μL, and then shaken to mix. The reaction is allowed to proceed at room temperature for 30 minutes. A binding solution is then made from the kit components, comprised of 80% Solution A, 20% Solution B and binding reagent at a volume of 1/600 the total binding solution.
A general note: Fluorescence polarisation rises when a labelled molecule tumbles more slowly, as on binding a larger partner.

Chain of human PDE10A2 (Q9Y233 267-1055): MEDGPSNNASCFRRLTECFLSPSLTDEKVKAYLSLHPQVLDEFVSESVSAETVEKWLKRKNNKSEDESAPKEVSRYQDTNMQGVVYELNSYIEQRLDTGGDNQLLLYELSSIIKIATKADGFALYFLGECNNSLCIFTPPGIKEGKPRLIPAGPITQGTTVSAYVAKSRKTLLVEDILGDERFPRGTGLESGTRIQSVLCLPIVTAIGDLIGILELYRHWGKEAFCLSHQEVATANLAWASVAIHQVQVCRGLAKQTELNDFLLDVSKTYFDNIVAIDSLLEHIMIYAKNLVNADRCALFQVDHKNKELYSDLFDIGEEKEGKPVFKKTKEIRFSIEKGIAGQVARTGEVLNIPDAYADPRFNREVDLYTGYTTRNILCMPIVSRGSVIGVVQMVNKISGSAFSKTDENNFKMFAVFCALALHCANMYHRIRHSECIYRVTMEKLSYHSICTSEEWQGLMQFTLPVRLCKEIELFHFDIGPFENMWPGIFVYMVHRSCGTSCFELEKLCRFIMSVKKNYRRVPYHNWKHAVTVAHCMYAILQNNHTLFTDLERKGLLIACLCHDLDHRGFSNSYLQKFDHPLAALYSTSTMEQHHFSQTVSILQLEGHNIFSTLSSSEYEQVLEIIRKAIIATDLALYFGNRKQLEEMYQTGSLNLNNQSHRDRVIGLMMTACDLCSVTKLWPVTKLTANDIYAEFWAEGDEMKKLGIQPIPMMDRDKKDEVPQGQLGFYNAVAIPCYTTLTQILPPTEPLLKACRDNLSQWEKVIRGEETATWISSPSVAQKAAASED

For the compound `CCn1cc(-c2cnc(C)nc2OC[C@H]2C[C@@H]2c2ccc(OC)cn2)cc(C)c1=O` [Example 35, 1-ethyl-5-(4-(((1S,2S)-2-(5-methoxypyridin-2-yl)cyclopropyl)methoxy)-2-methylpyrimidin-5-yl)-3-methylpyridin-2(1H)-one], the Ki came out at 0.381 nM. On to `CCn1c(C)c(-c2cnc(C)nc2OC[C@H]2C[C@@H]2c2ccc3ccccc3n2)ccc1=O` [Example 36, 1-ethyl-6-methyl-5-(2-methyl-4-(((1S,2S)-2-(quinolin-2-yl)cyclopropyl)methoxy)pyrimidin-5-yl)pyridin-2(1H)-one], for which the Ki came to 0.045 nM. Turning to `Cc1ccc([C@H]2C[C@@H]2COc2nc(C)ncc2-c2ccc(=O)n(C(C)C)c2C)nc1` [Example 37, 1-isopropyl-6-methyl-5-(2-methyl-4-(((1S,2S)-2-(5-methylpyridin-2-yl)cyclopropyl)methoxy)pyrimidin-5-yl)pyridin-2(1H)-one], the Ki amounted to 4.27 nM. With `COc1ccc([C@H]2C[C@@H]2COc2nc(C)ncc2-c2cc(C)c(=O)n(C)c2)nc1` [Example 38, 5-(4-(((1S,2S)-2-(5-methoxypyridin-2-yl)cyclopropyl)methoxy)-2-methylpyrimidin-5-yl)-1,3-dimethylpyridin-2(1H)-one] the figure was 0.727 nM; with `COCCn1cc(-c2cnc(C)nc2OC[C@H]2C[C@@H]2c2ccc(OC)cn2)ccc1=O` [Example 39, 1-(2-methoxyethyl)-5-(4-(((1S,2S)-2-(5-methoxypyridin-2-yl)cyclopropyl)methoxy)-2-methylpyrimidin-5-yl)pyridin-2(1H)-one], 0.821 nM; with `Cc1ccc([C@H]2C[C@@H]2COc2nc(C)ncc2-c2cc(C)c(=O)n(C)c2)nc1` [Example 40, 1,3-dimethyl-5-(2-methyl-4-(((1S,2S)-2-(5-methylpyridin-2-yl)cyclopropyl)methoxy)pyrimidin-5-yl)pyridin-2(1H)-one], 0.409 nM. On to `CCn1cc(-c2cnc(C)nc2OC[C@H]2C[C@@H]2c2ccc(C)cn2)cc(C)c1=O` [Example 41, 1-ethyl-3-methyl-5-(2-methyl-4-(((1S,2S)-2-(5-methylpyridin-2-yl)cyclopropyl)methoxy)pyrimidin-5-yl)pyridin-2(1H)-one], for which the Ki was 0.533 nM. With `Cc1ncc(-c2ccc(=O)n(C)c2)c(OC[C@H]2C[C@@H]2c2ccc3c(n2)CCC3)n1` [Example 42, 5-(4-(((1S,2S)-2-(6,7-dihydro-5H-cyclopenta[b]pyridin-2-yl)cyclopropyl)methoxy)-2-methylpyrimidin-5-yl)-1-methylpyridin-2(1H)-one] the figure was 0.531 nM. `Cc1ccc([C@H]2C[C@@H]2COc2nc(C)ncc2-c2ccc(=O)n(CC(F)F)c2)nc1` [Example 43, 1-(2,2-difluoroethyl)-5-(2-methyl-4-(((1S,2S)-2-(5-methylpyridin-2-yl)cyclopropyl)methoxy)pyrimidin-5-yl)pyridin-2(1H)-one]: the Ki was determined as 2.56 nM. `COc1ccc([C@H]2C[C@@H]2COc2nc(C)ncc2-c2ccc(=O)n(CC(F)F)c2)nc1` [Example 44, 1-(2,2-difluoroethyl)-5-(4-(((1S,2S)-2-(5-methoxypyridin-2-yl)cyclopropyl)methoxy)-2-methylpyrimidin-5-yl)pyridin-2(1H)-one]: the Ki was found to be 2.3 nM. In the case of `COc1ccc([C@H]2C[C@@H]2COc2nc(C)ncc2-c2ccc(=O)n(CCC#N)c2)nc1` [Example 45, 3-(5-(4-(((1S,2S)-2-(5-methoxypyridin-2-yl)cyclopropyl)methoxy)-2-methylpyrimidin-5-yl)-2-oxopyridin-1(2H)-yl)propanenitrile], the Ki stood at 1.78 nM. For `Cc1ccc([C@H]2C[C@@H]2COc2nc(C)ncc2-c2ccc(=O)n(CCC#N)c2)nc1` [Example 46, 3-(5-(2-methyl-4-(((1S,2S)-2-(5-methylpyridin-2-yl)cyclopropyl)methoxy)pyrimidin-5-yl)-2-oxopyridin-1(2H)-yl)propanenitrile], the Ki was found to be 2.15 nM. Regarding `COC(=O)Cn1cc(-c2cnc(C)nc2OC[C@H]2C[C@@H]2c2ccc(OC)cn2)ccc1=O` [Example 47, methyl 2-(5-(4-(((1S,2S)-2-(5-methoxypyridin-2-yl)cyclopropyl)methoxy)-2-methylpyrimidin-5-yl)-2-oxopyridin-1(2H)-yl)acetate], the Ki amounted to 3.65 nM. For `[2H]C([2H])([2H])n1cc(-c2cnc(C)nc2OC[C@H]2C[C@@H]2c2ccc(C)cn2)ccc1=O` [Example 48, 1-methyl-5-(2-methyl-4-(((1S,2S)-2-(5-methylpyridin-2-yl)cyclopropyl)methoxy)pyrimidin-5-yl)pyridin-2(1H)-one], the Ki was found to be 1.7 nM. As for `Cc1ccc([C@H]2C[C@@H]2COc2nc(C)ncc2-c2ccc(=O)n(CC3CC3)c2)nc1` [Example 49, 1-(cyclopropylmethyl)-5-(2-methyl-4-(((1S,2S)-2-(5-methylpyridin-2-yl)cyclopropyl)methoxy)pyrimidin-5-yl)pyridin-2(1H)-one], the Ki was determined as 0.983 nM. Turning to `[2H]C([2H])([2H])n1cc(-c2cnc(C)nc2OC[C@H]2C[C@@H]2c2ccc(OC)cn2)ccc1=O` [Example 51, 5-(4-(((1S,2S)-2-(5-methoxypyridin-2-yl)cyclopropyl)methoxy)-2-methylpyrimidin-5-yl)-1-methylpyridin-2(1H)-one], the Ki was found to be 0.946 nM. For the compound `COc1ccc([C@H]2C[C@@H]2COc2nc(C)ncc2-c2ccc(=O)n(CC(F)(F)F)c2)nc1` [Example 52, 5-(4-(((1S,2S)-2-(5-methoxypyridin-2-yl)cyclopropyl)methoxy)-2-methylpyrimidin-5-yl)-1-(2,2,2-trifluoroethyl)pyridin-2(1H)-one], the Ki amounted to 3.11 nM. With `COc1ccc([C@H]2C[C@@H]2COc2nc(C)ncc2-c2ccc(=O)n(CC3CC3)c2)nc1` [Example 53, 1-(cyclopropylmethyl)-5-(4-(((1S,2S)-2-(5-methoxypyridin-2-yl)cyclopropyl)methoxy)-2-methylpyrimidin-5-yl)pyridin-2(1H)-one] the figure was 0.377 nM; with `COc1cc(-c2cnc(C)nc2OC[C@H]2C[C@@H]2c2ccc3c(n2)CCC3)cn(C)c1=O` [Example 54, 5-(4-(((1S,2S)-2-(6,7-dihydro-5H-cyclopenta[b]pyridin-2-yl)cyclopropyl)methoxy)-2-methylpyrimidin-5-yl)-3-methoxy-1-methylpyridin-2(1H)-one], 0.045 nM. Consider `CCc1cc(-c2cnc(C)nc2OC[C@H]2C[C@@H]2c2ccc(C)cn2)cn(C)c1=O` [Example 55, 3-ethyl-1-methyl-5-(2-methyl-4-(((1S,2S)-2-(5-methylpyridin-2-yl)cyclopropyl)methoxy)pyrimidin-5-yl)pyridin-2(1H)-one], for which the Ki is 0.347 nM.

Turning to `COc1cc(-c2cnc(C)nc2OC[C@H]2C[C@@H]2c2ccc3ccccc3n2)cn(C)c1=O` [Example 56, 3-methoxy-1-methyl-5-(2-methyl-4-(((1S,2S)-2-(quinolin-2-yl)cyclopropyl)methoxy)pyrimidin-5-yl)pyridin-2(1H)-one], the Ki turned out to be 0.004 nM. With `COc1cc(-c2cnc(C)nc2OC[C@H]2C[C@@H]2c2ccc(C)cn2)cn(C)c1=O` [Example 57, 3-methoxy-1-methyl-5-(2-methyl-4-(((1S,2S)-2-(5-methylpyridin-2-yl)cyclopropyl)methoxy)pyrimidin-5-yl)pyridin-2(1H)-one], the Ki was determined as 0.349 nM.
